In US9920074B2 (ACEA BIOSCIENCES INC., priority 2013, dated 2018):
Read-outs that look alike come from different tables or passages of the source.

Columns and labels:
Format in all cases: cell-based
[1] = biological target: T1, free Btk protein from Ramos cells (Homo sapiens, UniProt Q06187); test: Btk target site occupancy ELISA assay; conditions: for IC50: ELISA
T1 construct: endogenous in cells; host or cells: Ramos cells (ATCC)
Experimental: (§1) Ramos cells were treated with Compound I-1 at indicated concentrations for 1 h, followed by stimulation with 6 μg/mL of IgM for 30 mm, and then lysed. Lysates were incubated with Compound I-21 (biotin labeled) at a final concentration of 1 μM in a PBS, 0.05% Tween-20, 1% BSA solution while shaking for 1 h at room temperature. Samples were transferred to a streptavidin-coated 96-well ELISA plate and mixed while shaking for 1 h at room temperature. The Btk antibody (BD 611116, 1:1000 dilution in PBS+0.05% Tween-20+0.5% BSA) was then applied and incubated for 1 h at room temperature. After wash, goat anti-mouse-HRP (Pierce 31432, 1:1000 dilution in PBS+0.05% Tween-20+0.5% BSA) was added and incubated for 1 h at room temperature. The ELISA was developed with addition of tetramethyl benzidine (TMB) followed by Stop Solution and read at OD 450 nm.
as §1, with “Compounds” for “Compound I-1”, “anti-IgM” for “IgM”, “diluted” for “dilution”, “tetramethylbenzidine” for “tetramethyl benzidine”

[2] = biological target: T2, Jak3 phosphorylation in NK-92 cells (Homo sapiens, UniProt P52333); test: Western blotting assay for Jak3; conditions: 1 hour, IL-2 stimulation, read-out: Jak3 inhibition
T2 construct: endogenous in cells; host or cells: NK-92 cells (ATCC)
T2 sequence (P52333 1-1124): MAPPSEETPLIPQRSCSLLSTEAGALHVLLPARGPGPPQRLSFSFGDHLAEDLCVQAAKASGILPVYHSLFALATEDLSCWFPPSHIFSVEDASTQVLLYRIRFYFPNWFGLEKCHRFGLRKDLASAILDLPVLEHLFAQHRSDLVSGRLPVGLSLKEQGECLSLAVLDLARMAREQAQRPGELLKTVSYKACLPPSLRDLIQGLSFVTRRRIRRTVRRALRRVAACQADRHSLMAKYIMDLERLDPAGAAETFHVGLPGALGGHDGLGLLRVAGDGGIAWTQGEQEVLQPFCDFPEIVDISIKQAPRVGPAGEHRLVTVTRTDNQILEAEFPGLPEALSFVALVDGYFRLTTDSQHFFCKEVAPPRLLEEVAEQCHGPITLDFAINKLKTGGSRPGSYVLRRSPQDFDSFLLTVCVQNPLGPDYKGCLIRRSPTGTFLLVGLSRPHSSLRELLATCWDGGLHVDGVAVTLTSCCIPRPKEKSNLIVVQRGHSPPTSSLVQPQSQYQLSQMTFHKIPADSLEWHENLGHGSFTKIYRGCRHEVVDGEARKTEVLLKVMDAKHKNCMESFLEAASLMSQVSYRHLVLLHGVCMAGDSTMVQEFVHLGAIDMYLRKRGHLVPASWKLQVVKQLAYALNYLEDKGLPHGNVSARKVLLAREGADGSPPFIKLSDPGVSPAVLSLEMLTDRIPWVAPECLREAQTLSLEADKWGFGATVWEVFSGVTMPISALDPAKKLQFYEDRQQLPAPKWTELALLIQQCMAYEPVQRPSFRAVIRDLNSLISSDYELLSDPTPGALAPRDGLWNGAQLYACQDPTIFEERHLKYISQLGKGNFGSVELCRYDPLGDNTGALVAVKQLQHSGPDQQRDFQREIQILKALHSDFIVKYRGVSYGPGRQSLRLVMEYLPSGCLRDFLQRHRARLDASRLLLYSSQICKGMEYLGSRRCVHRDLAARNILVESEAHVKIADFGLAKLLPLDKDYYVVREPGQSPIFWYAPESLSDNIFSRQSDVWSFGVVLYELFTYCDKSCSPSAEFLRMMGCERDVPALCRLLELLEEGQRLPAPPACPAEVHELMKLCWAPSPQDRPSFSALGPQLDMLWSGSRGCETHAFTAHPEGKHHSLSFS
Experimental: All cell lines were obtained from the American Type Culture Collection and were maintained at 37° C. with 5% CO2. Ramos cell line was maintained in media supplemented with 10% fetal bovine serum, penicillin (100 units/mL) and streptomycin (100 μg/mL). NK-92 cell line was maintained in media supplemented with 10% fetal bovine serum and 10% horse serum, penicillin (100 units/mL) and streptomycin (100 μg/mL), IL-2 10 ng/mL. Goat F(ab′)2 Anti-Human IgM-UNLB was obtained from SouthernBiotech. IL-2 was obtained from Peprotech.
NK-92 cells were treated with compounds at the dosed indicated for 1 hour in incubator, followed by the IL-2 stimulation for 15 minutes. Cells were then collected and lysed to prepare the cellular extraction. Western blots were performed on cell lysate using Phospho-Jak3, Jak3, Phospho-Stat5, Stat5 antibodies (Cell Signaling Technology). The intensity of blotting band was acquired using Image Lab (Bio-Rad) software, and the IC50 of target was generated with GraphPad Prism.

[3] = test system: Stat5 phosphorylation in NK-92 cells; test: Western blotting assay for Stat5; conditions: NK92, 1 hour, IL-2 stimulation, read-out: Stat5 inhibition
Summary of the method: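 NK-92 cells, maintained with IL-2, were pre-treated with compound for 1 h, then stimulated with IL-2 for 15 min. Lysates were western blotted for phospho- and total Jak3 and Stat5. IC50 came from densitometry of phospho-band intensity.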

T1 sequence (Q06187 whole entry): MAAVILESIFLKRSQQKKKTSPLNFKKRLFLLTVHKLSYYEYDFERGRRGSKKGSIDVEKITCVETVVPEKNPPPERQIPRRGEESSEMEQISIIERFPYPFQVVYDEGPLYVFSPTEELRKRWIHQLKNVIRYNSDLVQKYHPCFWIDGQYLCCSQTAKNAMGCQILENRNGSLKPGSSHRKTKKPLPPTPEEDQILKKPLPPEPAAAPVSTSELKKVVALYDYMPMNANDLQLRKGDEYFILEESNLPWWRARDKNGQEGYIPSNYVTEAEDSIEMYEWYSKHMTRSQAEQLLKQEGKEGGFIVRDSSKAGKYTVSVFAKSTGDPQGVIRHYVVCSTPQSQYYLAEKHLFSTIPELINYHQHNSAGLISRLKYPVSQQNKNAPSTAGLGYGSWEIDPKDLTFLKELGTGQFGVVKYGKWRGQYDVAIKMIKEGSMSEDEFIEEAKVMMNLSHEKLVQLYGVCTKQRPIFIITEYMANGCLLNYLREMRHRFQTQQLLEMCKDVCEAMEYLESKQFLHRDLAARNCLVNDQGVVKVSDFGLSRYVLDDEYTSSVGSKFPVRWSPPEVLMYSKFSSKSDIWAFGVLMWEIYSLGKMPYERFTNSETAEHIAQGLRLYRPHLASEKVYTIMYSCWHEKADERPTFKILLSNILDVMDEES

IC50 ([1]; 1 h, read-out: Btk Occupancy Assay (IC50)): ≤ 0.01 µM | OD 450 (average) ([1]; Compound I-1 0.2 nM): 0.1686 | free Btk ([1]; Compound I-1 0.2 nM): 2414 pg | OD 450 (average) ([1]; Compound I-1 0.7 nM): 0.1811 | free Btk ([1]; Compound I-1 0.7 nM): 2592 pg | OD 450 (average) ([1]; Compound I-1 3 nM): 0.1219 | free Btk ([1]; Compound I-1 3 nM): 1747 pg | OD 450 (average) ([1]; Compound I-1 12 nM): −0.0161 | free Btk ([1]; Compound I-1 12 nM): -224 pg | OD 450 (average) ([1]; Compound I-1 47 nM): 0.0114 | free Btk ([1]; Compound I-1 47 nM): 168 pg | OD 450 (average) ([1]; Compound I-1 188 nM): −0.0207 | free Btk ([1]; Compound I-1 188 nM): -290 pg | OD 450 (average) ([1]; Compound I-1 750 nM): −0.0456 | free Btk ([1]; Compound I-1 750 nM): -646 pg | OD 450 (average) ([1]; Compound I-1 3000 nM): −0.0487 | free Btk ([1]; Compound I-1 3000 nM): -689 pg | IC50 ([1]; read-out: BTK target site occupancy IC50): 0.0005 µM | IC50 [2]: ≤ 0.2 µM | IC50 [3]: ≥ 0.4 µM
Structure (SMILES): C=CC(=O)Nc1cccc(Oc2nc(Nc3ccc(N4CCN(C)CC4)cc3)ncc2OC)c1 [Compound I-1, N-(3-(5-methoxy-2-(4-(4-methylpiperazin-1-yl)phenylamino)pyrimidin-4-yloxy)phenyl)acrylamide]
occupancy of the Btk proteins ([1]; increasing concentrations): dose-dependent occupancy of the BTK proteins correlates with its inhibitory activity of BTK kinase
